Source: the supplement of paper PMC4862054

Key:
Details in all cases: incubation time: 72 h
[1] = tested on: MDA-MB-453; test: normalised response (% of control), CellTiter-Glo; higher = more viable cells (100 = DMSO, 0 = benzethonium chloride kill control)
Protocol: (§1)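 DSRT, 72 h incubation, CellTox Green / CellTiter-Glo readout. Signal is normalised to DMSO and benzethonium chloride controls. Value is the normalised response at the highest dose.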

[2] = tested on: DU-4475; test: as above
Protocol: as §1

[3] = tested on: HDQ-P1; test: as above
Protocol: as §1

[4] = tested on: SK-BR-3; test: as above
Protocol: as §1

[5] = tested on: MFM-223; test: as above
Protocol: as §1

[6] = tested on: MDA-MB-468; test: as above
Protocol: as §1

[7] = tested on: CAL-120; test: as above
Protocol: as §1

[8] = tested on: CAL-148; test: as above
Protocol: as §1

[9] = tested on: CAL-51; test: as above
Protocol: as §1

[10] = tested on: Hs578T; test: as above
Protocol: as §1

[11] = tested on: MDA-MB-436; test: as above
Protocol: as §1

[12] = tested on: MCF-10A; test: as above
Protocol: as §1

[13] = tested on: MDA-MB-231; test: as above
Protocol: as §1

[14] = tested on: BT-474; test: as above
Protocol: as §1

[15] = tested on: BT-549; test: as above
Protocol: as §1

[16] = tested on: HCC1937; test: as above
Protocol: as §1

[17] = tested on: HCC1599; test: as above
Protocol: as §1

[18] = tested on: CAL-85-1; test: as above
Protocol: as §1

[19] = tested on: HCC1143; test: as above
Protocol: as §1

[20] = tested on: MDA-MB-453; test: normalised response (% of control), CellTox Green; higher = less cell death (100 = DMSO, 0 = benzethonium chloride kill control)
Procedure, shortened: (§2)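 For each plate, 0.1 % DMSO was set to 100 and a positive kill control to 0. Breast cancer cell lines (20 µl suspension) were seeded into 384-well plates already holding compound at 5 concentrations in 10-fold steps over a 10,000-fold range chosen per compound, and incubated for 72 h. CellTox Green fluorescence at 485/520 nm was read before CellTiter-Glo luminescence, which followed 10 min at room temperature. Each value is the normalised signal at one concentration.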

[21] = tested on: DU-4475; test: as above
Procedure, shortened: as §2

[22] = tested on: HDQ-P1; test: as above
Procedure, shortened: as §2

[23] = tested on: MFM-223; test: as above
Procedure, shortened: as §2

[24] = tested on: MDA-MB-468; test: as above
Procedure, shortened: as §2

[25] = tested on: CAL-120; test: as above
Procedure, shortened: as §2

[26] = tested on: CAL-51; test: as above
Procedure, shortened: as §2

[27] = tested on: Hs578T; test: as above
Procedure, shortened: as §2

[28] = tested on: MDA-MB-436; test: as above
Procedure, shortened: as §2

[29] = tested on: MCF-10A; test: as above
Procedure, shortened: as §2

[30] = tested on: MDA-MB-231; test: as above
Procedure, shortened: as §2

[31] = tested on: BT-474; test: as above
Procedure, shortened: as §2

[32] = tested on: BT-549; test: as above
Procedure, shortened: as §2

[33] = tested on: HCC1937; test: as above
Procedure, shortened: as §2

[34] = tested on: HCC1599; test: as above
Procedure, shortened: as §2

[35] = tested on: CAL-85-1; test: as above
Procedure, shortened: as §2

[36] = tested on: HCC1143; test: as above
Procedure, shortened: as §2

[37] = tested on: CAL-148; test: as above
Procedure, shortened: as §2

Structure (SMILES)	normalised response [1] [%]	normalised response [2] [%]	normalised response [3] [%]	normalised response [4] [%]	normalised response [5] [%]	normalised response [6] [%]	normalised response [7] [%]	normalised response [8] [%]	normalised response [9] [%]	normalised response [10] [%]	normalised response [11] [%]	normalised response [12] [%]	normalised response [13] [%]	normalised response [14] [%]	normalised response [15] [%]	normalised response [16] [%]	normalised response [17] [%]	normalised response [18] [%]	normalised response [19] [%]	normalised response [20] [%]	normalised response [21] [%]	normalised response [22] [%]	normalised response [23] [%]	normalised response [24] [%]	normalised response [25] [%]	normalised response [26] [%]	normalised response [27] [%]	normalised response [28] [%]	normalised response [29] [%]	normalised response [30] [%]	normalised response [31] [%]	normalised response [32] [%]	normalised response [33] [%]	normalised response [34] [%]	normalised response [35] [%]	normalised response [36] [%]	normalised response [37] [%]
Cc1c(C(=O)Nc2ccc(N3C[C@@H](C)O[C@@H](C)C3)nc2)cccc1-c1ccc(OC(F)(F)F)cc1 [Erismodegib] (10000 nM)	75.5	99.6	85.3	81	80.8	74.7	97.6	100	102	94.8	78.6	92	79	73.5	81.8	90.2	91.1	91.8	89.4	63.9	108	111	105	171	101	99.8	80.5	79	101	107	93	130	122	118	85.3	109	–
COc1cc(Nc2ncc(F)c(Nc3ccc4c(n3)N(COP(=O)(O)O)C(=O)C(C)(C)O4)n2)cc(OC)c1OC [Fostamatinib] (2500 nM)	64.8	65.1	26.1	60.3	37.8	64.4	43.7	106	50.8	15.1	67.5	15.1	20.3	27	39.7	54	66.8	30.5	63.2	89.1	90.3	73.6	87.5	37.4	67.8	31.6	19.2	86.6	69	-11.9	77.7	64.8	74.1	92.7	-13.8	100	67.6
CC(C)NC[C@@H](C(=O)N1CCN(c2ncnc3c2[C@H](C)C[C@H]3O)CC1)c1ccc(Cl)cc1 [GDC-0068] (10000 nM)	29.6	75.2	58.3	44.3	23.3	43.4	70.3	3.54	36.8	65.1	77.5	58.9	89.5	86.6	55.3	61.5	82.5	66.1	55.8	90.9	96.6	67.2	74.7	46.7	104	77.1	119	96	101	124	95.7	76.8	97.5	95.9	100	110	29.8
CCCc1cc(C)[nH]c(=O)c1CNC(=O)c1cc(-c2ccnc(N3CCN(C)CC3)c2)cc2c1cnn2C(C)C [GSK343] (10000 nM)	13.7	77.8	66.7	11.3	41.8	11.1	79.4	62.8	120	74.4	53.9	97.5	7.92	11.3	77.1	100	22.8	30.2	68.9	-8.4	92.7	80	77.3	114	78.5	106	79.2	95.2	90.1	-68.4	4.03	97.6	101	73.6	56.8	68.4	85.5
